Here are results for 1 molecule from patent US20100015249A1, “Antitumor agent containing 6'-amidino-2'-naphthyl 4-guanidinobenzoate or salt thereof” (priority 2005, published 2010).

Experiment [1] has as its system NF-κB. Kind of experiment: Gel shift assay of active NF-κB in nuclear extracts. Format: cell-based, human. On the procedure: The human pancreas cancer cell line MDAPanc-28 was treated with various concentrations of FUT to examine the effect on NF-κB activation. NF-κB is constantly activated in the MDAPanc-28 cell line. A gel shift assay with a κB probe was performed using the nuclear extracts from cells treated with various concentrations of FUT to detect NF-κB which was activated and translocated into the nucleus. More specifically, 10 μg of nuclear extracts were reacted with 1 μg of poly (dI-dC) (Pharmacia, Picataway, N.J.) in binding buffer (75 mM NaCl, 15 mM Tris-HCl, pH 7.5, 1.5 mM dithiothreitol, 25% glycerol and 20 mg/ml bovine serum albumin) for 30 minutes at 4° C. ^32P-labeled oligonucleotide probes (SEQ ID Nos: 1 to 4) were then added for reaction for 20 minutes at room temperature and electrophoresis was performed (4% polyacrylamide gel, 0.25×TBE; 22.5 mM Tris, 22.5 mM borate and 500 μM EDTA, pH 8.0). After drying at 80° C. for 1 hour, the gel was exposed to Kodak film (Eastman Kodak Co., Rochester, N.Y.) at −80° C. for detection. Oct-1 was used as a positive control.
In general terms: In EMSA bound probe runs differently from free probe, usually more slowly.

In experiment [2] the test system is jBid. In words: Western blot of Bid / jBid. As to conditions: MDAPanc-28, FUT 80 μg/ml, 0 to 24 hours. Format: cell-based, human. How it is done:
The present inventors examined whether apoptosis signaling cascade is triggered with the elevation of TNFRI expression induced by FUT treatment, using caspase 8 as an indicator. Cytoplasmic fraction was prepared from the human pancreas cancer cell line […]-28 treated with various concentrations of FUT for 24 hours. Western blot was performed and subjected to the detection with anti-caspase 8 antibody (Santa Cruz Biotechnology) (FIG. 6-a). Western blot was performed to examine temporal changes in the expression of caspase 8, p-FADD, Bid and jBid under a constant concentration of FUT (80 μg/ml) at short intervals from 0 to 24 hours of treatment (FIGS. 6-b, 6-c and 6-d). Anti-FADD antibody was obtained from Santa Cruz Biotechnology and anti-Bid antibody was obtained from BD Pharmingen.
Background: Immunoblotting shows a protein as a band on a membrane.

The subject of experiment [3] is human pancreas cancer cell line MDAPanc-28. Kind of experiment: Matrigel infiltration assay. Format: cell-based. As to conditions: MDAPanc-28 pretreated with 80 μg/ml FUT for 24 hours, 22-hour incubation in matrigel-coated chamber. How it is done:
A matrigel infiltration assay was performed to examine an inhibitory effect on infiltration in the human pancreas cancer cell line MDAPanc-28 by FUT treatment. Cells treated with 80 μg/ml of FUT for 24 hours and untreated cells were respectively inoculated to a matrigel-coated chamber at a concentration of 20000 cells per well for a 22-hour incubation at 37° C. either in the presence or absence of 80 μg/ml of FUT. The numbers of infiltrated cells were then counted under the microscope after Wright-Giemsa staining according to the method generally known.

As for `N=C(N)c1ccc2cc(OC(=O)c3ccc(N=C(N)N)cc3)ccc2c1` [FUT, 6-amidino-2-naphthyl p-guanidinobenzoate dimethanesulfonate], the “NF-κB activation over time” value in experiment [1] (MDAPanc-28, time after addition of FUT up to 48 hours) is “inhibited overtime up to 24 hours after addition of FUT and then was restored to a steady-state level at 48 hours”. In addition, the NF-κB activation result in experiment [1] (MDAPanc-28, various concentrations of FUT) is listed as “inhibited NF-κB activation in a concentration-dependent manner”. Further, in experiment [2], the “expression of JBid, the degradation product of Bid” value is given as “overtime increase in the expression of JBid”. Further, the “infiltration (number of infiltrated cells)” value in experiment [3] was “significant inhibitory effect on infiltration”.
